Experimental data reported in PubChem BioAssay AID2060904 (Molecular Pharmacology Branch, DTP, NCI, 2025).

Test system: 349418-098-R-PDC complex spheroid viability
Experiment: Anticancer human tumor 349418-098-R-PDC patient-derived lung adenocarcinoma cell line growth inhibition [RAS]
Details: for IC50: curve of first compound; for viability, T/C: stronger effect = lower value
Outline: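 Tumour cells grown as complex spheroids with HUVEC endothelial cells and mesenchymal stem cells, treated with RAS pathway inhibitor combinations. Each agent spans half-log steps from near clinical Cmax, or 10 microM where Cmax is unknown.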

[1] = second compound 0.000949 µM, first compound 0.00316 µM
[2] = second compound 0.000949 µM, first compound 0.01 µM
[3] = second compound 0.000949 µM, first compound 0.0316 µM
[4] = second compound 0.000949 µM, first compound 0.1 µM
[5] = second compound 0.000949 µM, first compound 0.316 µM
[6] = second compound 0.000949 µM, first compound 1 µM
[7] = second compound 0.003 µM, first compound 0.00316 µM
[8] = second compound 0.003 µM, first compound 0.01 µM
[9] = second compound 0.003 µM, first compound 0.0316 µM
[10] = second compound 0.003 µM, first compound 0.1 µM
[11] = second compound 0.003 µM, first compound 0.316 µM
[12] = second compound 0.003 µM, first compound 1 µM
[13] = second compound 0.00949 µM, first compound 0.00316 µM
[14] = second compound 0.00949 µM, first compound 0.01 µM
[15] = second compound 0.00949 µM, first compound 0.0316 µM
[16] = second compound 0.00949 µM, first compound 0.1 µM
[17] = second compound 0.00949 µM, first compound 0.316 µM
[18] = second compound 0.00949 µM, first compound 1 µM
[19] = second compound 0.03 µM, first compound 0.00316 µM
[20] = second compound 0.03 µM, first compound 0.01 µM
[21] = second compound 0.03 µM, first compound 0.0316 µM
[22] = second compound 0.03 µM, first compound 0.1 µM
[23] = second compound 0.03 µM, first compound 0.316 µM
[24] = second compound 0.03 µM, first compound 1 µM
[25] = second compound 0.0949 µM, first compound 0.00316 µM
[26] = second compound 0.0949 µM, first compound 0.01 µM
[27] = second compound 0.0949 µM, first compound 0.0316 µM
[28] = second compound 0.0949 µM, first compound 0.1 µM
[29] = second compound 0.0949 µM, first compound 0.316 µM
[30] = second compound 0.0949 µM, first compound 1 µM
[31] = second compound 0.3 µM, first compound 0.00316 µM
[32] = second compound 0.3 µM, first compound 0.01 µM
[33] = second compound 0.3 µM, first compound 0.0316 µM
[34] = second compound 0.3 µM, first compound 0.1 µM
[35] = second compound 0.3 µM, first compound 0.316 µM
[36] = second compound 0.3 µM, first compound 1 µM
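Also: spheroids exposed to compound for seven days before viability readout.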

## C=CC(=O)Nc1cc(Nc2nccc(-c3cn(C)c4ccccc34)n2)c(OC)cc1N(C)CCN(C)C + CCn1c(-c2cccnc2C(C)OC)c2c3cc(ccc31)N1CCOC(CC(NC(=O)C(C(C)C)N(C)C(=O)C3(F)CCN(C(=O)C#CC(C)(C)N(C)C)CC3)C(=O)N3CCCC(N3)C(=O)OCC(C)(C)C2)C1
Second compound 0.000949 µM
  IC50: > 1 µM
Second compound 0.003 µM
  IC50: > 1 µM
Second compound 0.00949 µM
  IC50: > 1 µM
Second compound 0.03 µM
  IC50: > 1 µM
Second compound 0.0949 µM
  IC50: > 1 µM
Second compound 0.3 µM
  IC50: > 1 µM
[1]
  viability, T/C: 115%
[2]
  viability, T/C: 100%
[3]
  viability, T/C: 93.6%
[4]
  viability, T/C: 98.3%
[5]
  viability, T/C: 95.4%
[6]
  viability, T/C: 71.8%
[7]
  viability, T/C: 117%
[8]
  viability, T/C: 98.6%
[9]
  viability, T/C: 114%
[10]
  viability, T/C: 116%
[11]
  viability, T/C: 116%
[12]
  viability, T/C: 60.7%
[13]
  viability, T/C: 109%
[14]
  viability, T/C: 117%
[15]
  viability, T/C: 110%
[16]
  viability, T/C: 96%
[17]
  viability, T/C: 104%
[18]
  viability, T/C: 75.9%
[19]
  viability, T/C: 119%
[20]
  viability, T/C: 109%
[21]
  viability, T/C: 105%
[22]
  viability, T/C: 106%
[23]
  viability, T/C: 103%
[24]
  viability, T/C: 75.2%
[25]
  viability, T/C: 110%
[26]
  viability, T/C: 99.3%
[27]
  viability, T/C: 85.4%
[28]
  viability, T/C: 98.6%
[29]
  viability, T/C: 101%
[30]
  viability, T/C: 65.3%
[31]
  viability, T/C: 90.2%
[32]
  viability, T/C: 99.8%
[33]
  viability, T/C: 99.2%
[34]
  viability, T/C: 100%
[35]
  viability, T/C: 88.2%
[36]
  viability, T/C: 65.6%

## CC(Nc1ccc2c(c1)OCCn1cc(N3C(=O)OCC3C(F)F)nc1-2)C(N)=O (stereo unspecified) + CCn1c(-c2cccnc2C(C)OC)c2c3cc(ccc31)N1CCOC(CC(NC(=O)C(C(C)C)N(C)C(=O)C3(F)CCN(C(=O)C#CC(C)(C)N(C)C)CC3)C(=O)N3CCCC(N3)C(=O)OCC(C)(C)C2)C1
Second compound 0.000949 µM
  IC50: 0.0364 µM
Second compound 0.003 µM
  IC50: 0.0994 µM
Second compound 0.00949 µM
  IC50: 0.0724 µM
Second compound 0.03 µM
  IC50: 0.278 µM
Second compound 0.0949 µM
  IC50: < 0.0316 µM
Second compound 0.3 µM
  IC50: 0.0399 µM
[3]
  viability, T/C: 72.9%
[4]
  viability, T/C: 36.7%
[5]
  viability, T/C: 17.7%
[6]
  viability, T/C: 17.2%
Second compound 0.000949 µM, first compound 3.16 µM
  viability, T/C: 101%
Second compound 0.000949 µM, first compound 10 µM
  viability, T/C: 16.2%
[9]
  viability, T/C: 80.3%
[10]
  viability, T/C: 56.2%
[11]
  viability, T/C: 30.2%
[12]
  viability, T/C: 19.6%
Second compound 0.003 µM, first compound 3.16 µM
  viability, T/C: 99.2%
Second compound 0.003 µM, first compound 10 µM
  viability, T/C: 12.9%
[15]
  viability, T/C: 73.4%
[16]
  viability, T/C: 43.6%
[17]
  viability, T/C: 25.2%
[18]
  viability, T/C: 14.9%
Second compound 0.00949 µM, first compound 3.16 µM
  viability, T/C: 94.2%
Second compound 0.00949 µM, first compound 10 µM
  viability, T/C: 11.8%
[21]
  viability, T/C: 67.6%
[22]
  viability, T/C: 43%
[23]
  viability, T/C: 32.2%
[24]
  viability, T/C: 24.3%
Second compound 0.03 µM, first compound 3.16 µM
  viability, T/C: 112%
Second compound 0.03 µM, first compound 10 µM
  viability, T/C: 14.7%
[27]
  viability, T/C: 55.9%
[28]
  viability, T/C: 44.5%
[29]
  viability, T/C: 25.9%
[30]
  viability, T/C: 17.9%
Second compound 0.0949 µM, first compound 3.16 µM
  viability, T/C: 98.1%
Second compound 0.0949 µM, first compound 10 µM
  viability, T/C: 10.4%
[33]
  viability, T/C: 53.7%
[34]
  viability, T/C: 37.8%
[35]
  viability, T/C: 21.5%
[36]
  viability, T/C: 19%
Second compound 0.3 µM, first compound 3.16 µM
  viability, T/C: 65%
Second compound 0.3 µM, first compound 10 µM
  viability, T/C: 14.5%

## O=C(c1ccc(F)c(F)c1Nc1ccc(I)cc1F)N1CC(O)([C@@H]2CCCCN2)C1 + CCn1c(-c2cccnc2C(C)OC)c2c3cc(ccc31)N1CCOC(CC(NC(=O)C(C(C)C)N(C)C(=O)C3(F)CCN(C(=O)C#CC(C)(C)N(C)C)CC3)C(=O)N3CCCC(N3)C(=O)OCC(C)(C)C2)C1
Second compound 0.000949 µM
  IC50: < 0.00316 µM
Second compound 0.003 µM
  IC50: < 0.00316 µM
Second compound 0.00949 µM
  IC50: < 0.00316 µM
Second compound 0.03 µM
  IC50: < 0.00316 µM
Second compound 0.0949 µM
  IC50: < 0.00316 µM
Second compound 0.3 µM
  IC50: < 0.00316 µM
[1]
  viability, T/C: 26.5%
[2]
  viability, T/C: 22.8%
[3]
  viability, T/C: 15.6%
[4]
  viability, T/C: 12.7%
[5]
  viability, T/C: 7.76%
[6]
  viability, T/C: 5.98%
[7]
  viability, T/C: 29.4%
[8]
  viability, T/C: 24.1%
[9]
  viability, T/C: 17.2%
[10]
  viability, T/C: 11.3%
[11]
  viability, T/C: 6.93%
[12]
  viability, T/C: 5.43%
[13]
  viability, T/C: 28.6%
[14]
  viability, T/C: 17.8%
[15]
  viability, T/C: 14.9%
[16]
  viability, T/C: 10.6%
[17]
  viability, T/C: 7.5%
[18]
  viability, T/C: 6.07%
[19]
  viability, T/C: 30.2%
[20]
  viability, T/C: 14.9%
[21]
  viability, T/C: 15.8%
[22]
  viability, T/C: 12%
[23]
  viability, T/C: 7.23%
[24]
  viability, T/C: 5.04%
[25]
  viability, T/C: 27.1%
[26]
  viability, T/C: 17.5%
[27]
  viability, T/C: 13.2%
[28]
  viability, T/C: 10.3%
[29]
  viability, T/C: 6.84%
[30]
  viability, T/C: 5.79%
[31]
  viability, T/C: 30.1%
[32]
  viability, T/C: 15.8%
[33]
  viability, T/C: 12.9%
[34]
  viability, T/C: 11.1%
[35]
  viability, T/C: 7.31%
[36]
  viability, T/C: 5.8%
